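Growth conditions: 96-well plates. Treatment: test compound, 48 hours, 5 concentrations. Analysis: linear interpolation between bracketing concentrations; unreached endpoints set to highest concentration. The concentration for full growth arrest is given as TGI.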
Columns and labels:
Assay in all cases: growth of human tumour cells (NCI), 48 h
CCRF-CEM leukemia = test system: CCRF-CEM leukemia
CAKI-1 renal = test system: CAKI-1 renal
XF 498 CNS = test system: XF 498 CNS
M14 melanoma = test system: M14 melanoma
M19-MEL melanoma = test system: M19-MEL melanoma
SK-OV-3 ovarian = test system: SK-OV-3 ovarian
SF-268 CNS = test system: SF-268 CNS
ACHN renal = test system: ACHN renal
HCT-116 colon = test system: HCT-116 colon
IGROV1 ovarian = test system: IGROV1 ovarian
HCT-15 colon = test system: HCT-15 colon
A549 NSCLC = test system: A549 NSCLC
SR leukemia = test system: SR leukemia
SK-MEL-5 melanoma = test system: SK-MEL-5 melanoma
UACC-62 melanoma = test system: UACC-62 melanoma
K-562 leukemia = test system: K-562 leukemia
OVCAR-5 ovarian = test system: OVCAR-5 ovarian
SF-295 CNS = test system: SF-295 CNS
OVCAR-4 ovarian = test system: OVCAR-4 ovarian
HL-60(TB) leukemia = test system: HL-60(TB) leukemia
MALME-3M melanoma = test system: MALME-3M melanoma
KM12 colon = test system: KM12 colon
DMS 114 small cell lung = test system: DMS 114 small cell lung
TK-10 renal = test system: TK-10 renal
SW-620 colon = test system: SW-620 colon
SK-MEL-2 melanoma = test system: SK-MEL-2 melanoma
NCI-H226 lung = test system: NCI-H226 lung
RPMI-8226 leukemia = test system: RPMI-8226 leukemia
HOP-92 NSCLC = test system: HOP-92 NSCLC
SN12C renal = test system: SN12C renal
MOLT-4 leukemia = test system: MOLT-4 leukemia
RXF 393 renal = test system: RXF 393 renal
NCI-H522 lung = test system: NCI-H522 lung
LOX IMVI melanoma = test system: LOX IMVI melanoma
LXFL 529 NSCLC = test system: LXFL 529 NSCLC
HCC-2998 colon = test system: HCC-2998 colon
SNB-78 CNS = test system: SNB-78 CNS
SK-MEL-28 melanoma = test system: SK-MEL-28 melanoma
DMS 273 small cell lung = test system: DMS 273 small cell lung
OVCAR-3 ovarian = test system: OVCAR-3 ovarian
SNB-75 CNS = test system: SNB-75 CNS
U251 CNS = test system: U251 CNS
UACC-257 melanoma = test system: UACC-257 melanoma
RXF-631 renal = test system: RXF-631 renal
NCI-H23 lung = test system: NCI-H23 lung
DLD-1 colon = test system: DLD-1 colon
HOP-62 NSCLC = test system: HOP-62 NSCLC
SF-539 CNS = test system: SF-539 CNS
OVCAR-8 ovarian = test system: OVCAR-8 ovarian

Measured: TGI

CC1NS(=O)(=O)N(C)C1=O (centres undefined)
> 100 µM: all assays above

Source: PubChem BioAssay (NCI)
